Patent publication US10154989B2, “Methods of managing graft versus host disease (GvHD) using indole carboxyaldehydes or derivatives thereof” (Emory University, priority 2015, dated 2018)
Entries after “also recorded” stand apart in the source; their conditions may differ.

Key:
Assay type in all cases: in vivo
[1] = tested on: GvHD in B10.BR (H2k) mice transplanted with TCD-BM+T cells; test: GvHD model: lethally irradiated B10.BR mice given TCD-BM plus 2×10^6 B6 T cells, daily ICA gavage
Procedure: Lethally irradiated B10.BR (H2k) mice were transplanted with 3×10^6 T cell depleted bone marrow cells (TCD-BM) alone or the combination of TCD-BM plus 2×10^6 purified T cells from B6 (H2b) donor mice. Mice received daily gavage with 100 mg/kg or 150 mg/kg ICA or vehicle through day 38 post-transplant. Survival and clinical manifestations of GvHD were monitored through day 62. Histopathology of the gut, cytokines in serum and colon homogenates, intracellular cytokine staining of donor T-cells and bacterial counts in mesenteric lymph nodes (using blood agar plates) were measured in a separate cohort of experimental mice euthanized on day 20. Additionally, a secondary transplant was conducted to test the allo-proliferative capacity (in vivo CFSE dilution assay) and GvHD activity of T-cells from spleens of mice in the TCD-BM+T cells+150 mg/kg ICA group that survived to day 62, compared to B6 T cells, in combination with fresh B6 TCD-BM, in B10.BR recipients.
They were fed vehicle, 100 mg/kg/day of ICA, or 150 mg/kg/day of ICA by oral gavage. Only 7% of the recipients of TCD-BM+T cells treated with vehicle only survived to day 46.

[2] = tested on: GvHD in B10.BR mice administered TCDBM+T cells; test: GvHD model: 11Gy TBI B10.BR mice given TCDBM plus 3×10^6 allo-MHC mismatched C57Bl/6 T cells
Procedure: B6,B10.BR allo MHC mismatched transplants, administering 3×10^6 MHC mismatched donor T cells following myeloablative irradiation with 11Gy that injures gut epithelia. […] ICA (150 mg/kg/d) p.o. QD.
The gut microbiota contribute to GvHD, yet some Lactobacillus species, which produce ICA and related molecules, mitigate GvHD. Thus, depending on the composition of the microbiota, molecules derived from it might protect from GvHD or exacerbate it. ICA might limit GvHD, by regulating barrier integrity. A myeloablative dose of total body irradiation (TBI) (11Gy) was administered to B10.BR mice, an established murine model of GvHD, in which followed by transplantation of T cell depleted bone marrow (TCDBM) plus/or minus 3×10^6 allo-MHC mismatched T cells all from donor C57Bl/6 mice. Mice administered TCDBM+T cells consistently developed GvHD, increased apoptosis and crypt hyperplasia in the colon (e.g. FIG. 4C), bacterial dissemination to mesenteric lymph nodes (FIG. 4B), increased Th17 responses, and 90% lethality by 30 days (FIG. 4A). […] Thus, ICA protects against GvHD.

[3] = tested on: radiation-induced enteritis in mice; test: Radiation enteritis: 12Gy TBI without BM transplant
Description: Mice were subjected to 12Gy TBI without BM transplant, a lethal model in which most animals succumb to radiation-induced enteritis by about 7 days post-irradiation (p.i.), as opposed to hematopoietic failure at about 14 days p.i. […] (FIG. 5C). Thus, ICA reduced the death rate of both colonic and hematopoietic stem cells. […] While reduced intestinal damage and improved repair likely accounts at least in part for initial improvement in GvHD animals, additional effects on immune tolerance were also evident, but only over very long periods of administration (>3 months).

[4] = tested on: C. rodentium; test: Infectious colitis: ICA given to mice infected with C. rodentium
Procedure: Indoles were assessed in models of epithelial barrier integrity and immune regulation in mammals. Pathogenic E. coli (EPEC and EHEC) and the related mouse pathogen C. rodentium encode virulence factors and a Type III secretion system through the LEE pathogenicity island, and cause diarrhea and colitis. In vivo, C. rodentium causes infectious colitis, characterized by neutrophil and T cell infiltration into the lamina propria, transient increases in IL-22, epithelial barrier breakdown, crypt hyperplasia (an indicator of repair), and dissemination of bacteria throughout the body. […] Thus, indole derivatives, produced via commensal E. coli TnaA, mitigate pathogen infection. ICA was administered to mice that were infected with C. rodentium.

[5] = ICA-treated recipients of TCD-BM+T cells
[6] = mice infected with C. rodentium

O=Cc1c[nH]c2ccccc12 [ICA, indole-3-carboxaldehyde]
survival of recipients of TCD-BM+T cells ([1]; 100 mg/kg/day ICA oral gavage, at day 52, p=0.009): 20% | survival of recipients of TCD-BM+T cells ([1]; 150 mg/kg/day ICA oral gavage, p<0.001): 83% | levels of inflammatory cytokines [1, 5]: decreased levels of inflammatory cytokines | thymopoiesis [1, 5]: improved thymopoiesis | GvHD activity of recovered T cells in secondary B10.BR recipients ([1]; T cells recovered at day 62 from ICA-treated recipients): lack of GvHD activity | proliferation of CFSE-stained T cells in secondary transplant ([1]; T cells recovered at day 62 from ICA-treated recipients, secondary B10.BR recipients): reduced proliferation | GvHD mortality / survival, in words ([1]; daily doses of ICA, 100 or 150 mg/kg/day): improved survival in a dose-dependent manner; also recorded: reduces GvHD mortality in a dose-dependent manner | engraftment by allogeneic donor bone marrow ([1]; fed to transplant recipients for the first few weeks after transplant): allows normal engraftment | tolerability / toxicity ([1]; recipients of BM grafts without GvHD-causing T-cells): well tolerated without serious toxicity | GvHD pathology, histological analysis of colonic tissue ([1]; vs vehicle-treated control animals): marked reduction of GvHD pathology | bacterial colonization of mesenteric lymph nodes (MLN) ([1]; vs vehicle-treated control animals, p<0.01): decreased bacterial colonization; also recorded: reduce bacterial colonization | bacterial dissemination to mesenteric lymph nodes ([2]; ICA p.o. 150 mg/kg QD): abrogated | colon damage ([2]; ICA p.o. 150 mg/kg QD): abrogated | effect on liver GvHD ([2]; ICA p.o. 150 mg/kg QD): without effect | animals in which weight loss and death were prevented ([2]; ICA p.o. 150 mg/kg QD, animals receiving TCDBM+T cells): 90% | tolerance of donor C57Bl/6 T cells to B10.BR antigens ([2]; after long-term treatment (50 days)): irreversibly and permanently tolerant | response of donor T cells to allo-antigens other than B10.BR or C57Bl/6 ([2]; after long-term treatment (50 days), upon secondary transplantation): remain responsive | survival of mice with transplanted allogeneic T cells ([2]; untreated animals all succumbed to GvHD): 90% | mean survival time ([3]; 12Gy TBI without BM transplant, extended from 7 days): 12 days p.i. | apoptotic cells in the colon ([3]; at 6 hr p.i.): fewer apoptotic cells; also recorded: decrease | hematopoietic cells in the marrow ([3]; at 4 days p.i.): increased numbers; also recorded: enhances survival of hematopoietic progenitors | survival from radiation, in words ([3]; no BM transplant): promotes survival | survival ([4]; ICA 150 mg/kg/d p.o., C. rodentium infected MyD88−/− mice, compared to vehicle): enhances survival | barrier integrity [4, 6]: maintained barrier integrity | survival [4, 6]: prolonged survival
